Tests used:
human TLR7 = biological target: T1, human TLR7 (Homo sapiens, UniProt Q9NYK1); assay: Reporter gene assay, HEK293-TLR7 (NF-kB-driven luciferase); format: cell-based; settings: TLR-7 stimulation; read-out: Human TLR-7 EC50
T1 construct: expressed in transfected cells; host or cells: HEK 293
T1 sequence (Q9NYK1 27-1049): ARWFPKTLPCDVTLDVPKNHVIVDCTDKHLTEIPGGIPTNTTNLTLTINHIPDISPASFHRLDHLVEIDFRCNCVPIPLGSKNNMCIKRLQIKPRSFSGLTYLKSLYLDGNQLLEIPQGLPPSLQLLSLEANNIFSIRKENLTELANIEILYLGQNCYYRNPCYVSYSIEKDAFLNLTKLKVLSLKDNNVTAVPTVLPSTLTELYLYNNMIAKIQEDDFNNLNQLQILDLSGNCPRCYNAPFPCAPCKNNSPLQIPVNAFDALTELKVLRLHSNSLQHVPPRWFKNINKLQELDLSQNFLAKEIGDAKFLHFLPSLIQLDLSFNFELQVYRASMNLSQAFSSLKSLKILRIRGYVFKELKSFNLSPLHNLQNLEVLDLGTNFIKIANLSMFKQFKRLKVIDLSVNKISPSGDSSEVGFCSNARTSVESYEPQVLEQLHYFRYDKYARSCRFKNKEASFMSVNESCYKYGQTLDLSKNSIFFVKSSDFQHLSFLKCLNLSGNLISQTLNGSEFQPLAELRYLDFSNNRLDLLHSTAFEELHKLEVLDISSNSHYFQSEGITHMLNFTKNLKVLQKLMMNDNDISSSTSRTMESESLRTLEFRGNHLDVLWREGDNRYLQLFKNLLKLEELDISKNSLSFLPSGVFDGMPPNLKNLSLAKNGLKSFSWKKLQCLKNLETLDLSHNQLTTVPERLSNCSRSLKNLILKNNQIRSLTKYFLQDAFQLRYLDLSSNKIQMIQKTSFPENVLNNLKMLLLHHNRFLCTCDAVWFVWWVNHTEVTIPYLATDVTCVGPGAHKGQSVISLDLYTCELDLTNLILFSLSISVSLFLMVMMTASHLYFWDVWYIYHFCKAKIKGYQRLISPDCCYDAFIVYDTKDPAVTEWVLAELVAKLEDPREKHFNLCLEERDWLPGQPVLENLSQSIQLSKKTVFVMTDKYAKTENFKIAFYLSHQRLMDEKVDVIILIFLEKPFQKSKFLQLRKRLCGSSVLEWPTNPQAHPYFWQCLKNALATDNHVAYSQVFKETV
Experimental: Human embryonic kidney 293 (HEK 293) cells are stably transfected with human TLR7 or TLR8 and an NF-kB-driven luciferase reporter vector (pNifty-Luciferase). As a control assay, normal Hek293 transfected with pNifty-Luc are used. Cells are cultured in DMEM supplemented with 2 mM L-glutamine, 10% heart inactivated FBS, 1% penicillin and streptomycin, 2 μg/ml puromycin (InvivoGen #ant-pr-5) and 5 μg/ml of blasticidin (Invitrogen #46-1120). Bright-Glo™ Luciferase assay buffer and substrate are supplied by Promega #E263B and #E264B (assay substrate and buffer respectively). 384 well clear-bottom plates are supplied by Greiner bio-one (#789163-G) and are GNF custom bar-coded plates.
Cells are plated at 25,000 cells/well in 384-well plates in a final volume of 50 μl of media. Cells are allowed to adhere to the plates after overnight (18 hours) culture at 37° C. 5% CO2. Serially diluted experimental and positive control compounds are then dispensed to each well and incubated for 7 hours at 37° C. 5% CO2. Cells stimulated with DMSO alone also serve as negative controls. After the incubation, 30 μl of the pre-mix assay buffer and substrate buffer are added to each well according to manufacturer's instructions. The luminescence signal is read on a CLIPR machine with an integration time of 20 seconds per plate.
Dose response curves are generated for each compound and EC50 values were determined as the concentration that gives 50% of the maximal signal.

[1] = test system: N. meningitidis serogroup B strain NZ98; assay: In vivo enhancement of immune response to 3MenB vaccine, serum bactericidal antibody (SBA) titer
Experimental: In a second experiment, the dose response of one compound, Example No. 47, was tested using the same protocol. […] The SBA titers were measured in all cases using the standard CFU method. The dose of each compound in μg is indicated on the left of FIG. 2.
FIG. 5 summarizes the data from the six total experiments. A titer of >1000 correlates with immunization providing protection against the pathogen tested in the SBA titer (i.e., the NZ/98 N. meningitidis serogroup B strain).

Question: `Cc1ccc(CCc2cnc3c(N)nc4ccccc4c3c2)c(C)c1` [Example 47, 2-(2,4-dimethylphenethyl)benzo[f][1,7]naphthyridin-5-amine] was tested. Which EC50 (human TLR7) did it give?
Answer: Its EC50 is 361 nM.

Question: What about the “protective response in the mice (SBA titer of >1000 correlates with protection)” value ([1]; 100 μg compound with 3MenB/MF59, NZ98 strain) of the same molecule?
Answer: The value was “protective response”.

Question: And the “difference in SBA titer, immunization with a CpG oligo versus the compound” value ([1]; mice, by p-value)?
Answer: The value was “did not produce a statistically significant difference”.

From patent US8466167B2, “Compounds and compositions as TLR activity modulators” (IRM LLC, priority 2008, dated 2013)
